Experimental data published in patent US20060084682A1, “Thrombopoietin mimetics” (priority 2002, published 2006).

Target: T1, human Tpo-R (Homo sapiens, UniProt P40238)
T1 construct: expressed in transfected cells; host or cells: murine BaF3 cell line
T1 sequence (P40238 26-635): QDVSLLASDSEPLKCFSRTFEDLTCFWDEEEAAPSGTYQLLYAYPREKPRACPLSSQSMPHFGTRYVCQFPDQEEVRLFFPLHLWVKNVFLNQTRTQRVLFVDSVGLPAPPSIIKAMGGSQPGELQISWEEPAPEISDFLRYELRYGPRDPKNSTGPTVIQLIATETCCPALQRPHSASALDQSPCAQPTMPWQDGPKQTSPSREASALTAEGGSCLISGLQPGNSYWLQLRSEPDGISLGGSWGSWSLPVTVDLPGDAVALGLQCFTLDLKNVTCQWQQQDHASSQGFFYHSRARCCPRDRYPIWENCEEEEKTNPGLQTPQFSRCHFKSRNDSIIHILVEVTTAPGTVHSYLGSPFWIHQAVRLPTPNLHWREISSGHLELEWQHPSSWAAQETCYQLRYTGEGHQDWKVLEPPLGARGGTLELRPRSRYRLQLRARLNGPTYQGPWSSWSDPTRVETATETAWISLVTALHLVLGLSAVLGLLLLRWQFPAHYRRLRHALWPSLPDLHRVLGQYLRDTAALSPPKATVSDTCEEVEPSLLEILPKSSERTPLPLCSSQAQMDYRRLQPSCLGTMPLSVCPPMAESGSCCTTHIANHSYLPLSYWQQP
Assay: in vitro proliferation assay using the murine BaF3 cell line transfected with human Tpo-R
Assay type: cell-based
Conditions: at a concentration of 2 uM
Method: Compounds of the present invention were tested for potency as mimetics of TPO in an in vitro proliferation assay using the murine BaF3 cell line transfected with human Tpo-R. Survival and growth is dependent on the presence of TPO.

O=C1NC(=S)SC1=Cc1ccc2[nH]c(-c3cccc(-c4ccc(Cl)c(Cl)c4)n3)nc2c1 [Example 1, 5-{2-[6-(3,4-dichloro-phenyl)-pyridin-2-yl]-1H-benzoimidazol-5-ylmethylene}-2-thioxo-thiozolidin-4-one]
activation, % of control (control is the maximal response to TPO), proliferation of BaF3 cells: about 20 % of control
